# Experimental data as given in publication PMC7807814 (ACS Omega, 2020).
# Molecular target: GST–VCB protein complex (Homo sapiens, UniProt P40337)
# Format: binding
# Conditions: reported FP Kd versus TR-FRET Ki
# Sequence of GST–VCB protein complex (P40337 54-213): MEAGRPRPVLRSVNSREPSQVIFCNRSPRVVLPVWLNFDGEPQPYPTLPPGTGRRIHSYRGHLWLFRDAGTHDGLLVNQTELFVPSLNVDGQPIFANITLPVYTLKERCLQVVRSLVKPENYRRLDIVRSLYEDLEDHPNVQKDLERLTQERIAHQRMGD
# Sequence of GST–VCB protein complex (Q15369 17-112, further chain): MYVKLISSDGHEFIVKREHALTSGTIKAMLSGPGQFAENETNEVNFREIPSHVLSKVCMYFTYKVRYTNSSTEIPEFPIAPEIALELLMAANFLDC
# Sequence of GST–VCB protein complex (Q15370 whole entry, further chain): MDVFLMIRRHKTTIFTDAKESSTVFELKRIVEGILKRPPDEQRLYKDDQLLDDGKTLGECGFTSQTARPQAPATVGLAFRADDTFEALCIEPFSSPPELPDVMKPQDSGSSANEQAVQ
row,sensitivity of TR-FRET assay over FAM–HIF–1α peptide (19 mer)-based FP assay [fold],Compound
1,4.49,"CC(=O)N[C@H](C(=O)N1C[C@H](O)C[C@H]1C(=O)NCc1ccc(-c2scnc2C)cc1)C(C)(C)C [VH032 (1), (2S,4R)-1-((S)-2-Acetamido-3,3-dimethylbutanoyl)-4-hydroxy-N-(4-(4-methylthiazol-5-yl)benzyl)pyrrolidine-2-carboxamide]"
2,4.23,"Cc1ncsc1-c1ccc(CNC(=O)[C@@H]2C[C@@H](O)CN2C(=O)[C@@H](NC(=O)C2(C#N)CC2)C(C)(C)C)cc1 [VH298 (2), (2S,4R)-1-((S)-2-(1-Cyanocyclopropanecarboxamido)-3,3-dimethylbutanoyl)-4-hydroxy-N-(4-(4-methylthiazol-5-yl)benzyl)pyrrolidine-2-carboxamide]"
